Assay results published in patent US20100075984A1, “DICARBONYLIC COMPOUNDS WITH ANTIBACTERIAL ACTIVITY” (LABORATORIOS SALVAT, S.A., priority 2006, published 2010).
≈ marks a conversion by molar mass, not a printed value.

Assays:
[1] = test system: Staphylococcus aureus (BCM-012); test: Antimicrobial activity, microdilution in microtiter plate (MIC); type: cell-based; conditions: Staphylococcus aureus BCM-012 (SALVAT collection); two-fold serial dilutions, 96 well plates; incubation 24 h at 35° C.
Description: (§1) In order to assess the antimicrobial activity of the compounds of the present invention a method of microdilution in microtiter plate was used. The compounds were diluted in a nutritious medium and, subsequently, distributed by two-fold serial dilutions in 96 well plates. Then, plates were inoculated with a bacterial suspension. After incubation for 24 h at 35° C. the minimum inhibitory concentration (MIC) of the drug in μg/mL was determined as the lowest concentration of compound which inhibits the growth of the bacterium. Results included in table 7 illustrate the antimicrobial activity of some of the compounds of the present invention in comparison with thus obtained with two compounds (linezolid and eperezolid) of a known antimicrobial activity. The antimicrobial activity of the compound versus Streptococcus faecalis (BCM-010, strain designation as for SALVAT collection) and Staphylococcus aureus (BCM-012, strain designation as for SALVAT collection), respectively, is shown in the different columns.

[2] = test system: Streptococcus faecalis (BCM-010); test: as above; type: cell-based; conditions: Streptococcus faecalis BCM-010 (SALVAT collection), two-fold serial dilutions, 96 well plates, incubation 24 h at 35° C.; for MIC: Enterococcus faecalis
Description: as §1

| Structure (SMILES) | BCM-012 MIC [1] [µg/mL] | BCM-010 MIC [2] [µg/mL] | MIC [1] [µg/mL] | MIC [2] [µg/mL] |
| --- | --- | --- | --- | --- |
| O=C(NCC(=O)N1CCN(c2ccc(-c3cc(CO)on3)cc2F)CC1)c1ccc2cccc(O)c2n1 [I_192] | 0.5 | 0.5 | – | – |
| O=C(NC(C(=O)N1CCN(c2ccc(-c3cc(CNc4ccon4)on3)cc2F)CC1)c1ccccc1)c1ccc2[nH]cnc2c1 (centres unmarked) [I_153] | 2 | 2 | – | – |
| CC(=O)Nc1ccc(C(=O)NCC(=O)N2CCN(c3ccc(-c4cc(CNc5ccon5)on4)cc3F)CC2)cn1 [I_117] | 1 | 1 | – | – |
| O=C(NCC(=O)N1CCN(c2c(F)cc(-c3cc(CNc4ccon4)on3)cc2F)CC1)c1ccc2cccc(O)c2n1 [I_160] | 0.25 | 0.25 | – | – |
| Cc1ccc(C(=O)N[C@@H](C)C(=O)N2CCN(c3ccc(-c4cc(CO)on4)cc3F)CC2)cn1 [I_213] | 1 | 1 | – | – |
| Nc1ccc(C(=O)NCC(=O)N2CCN(c3ccc(-c4cc(CNc5ccon5)on4)cc3F)CC2)c(O)c1 [I_32] | 0.25 to 0.5 | 0.25 to 0.5 | – | – |
| O=CNCC(=O)N1CCN(c2ccc(-c3cc(CNc4ccon4)on3)cc2F)CC1 [I_1] | 1 | 2 | – | – |
| CC(=O)NC[C@H]1CN(c2ccc(N3CCOCC3)c(F)c2)C(=O)O1 [Linezolid, linezolid, reference compound] | – | – | 2 (≈ 5.93 µM) | 4 (≈ 11.9 µM) |
| C#CCn1c(C)nc2cc(C(=O)NCC(=O)N3CCN(c4ccc(-c5cc(CNc6ccon6)on5)cc4F)CC3)ccc21 [I_84] | 1 | 2 | – | – |
| Cc1nc2cc(C(=O)NCC(=O)N3CCN(c4ccc(-c5cc(CNc6ccon6)on5)cc4F)CC3)ccc2n1CC1CC1 [I_82] | 2 | 2 | – | – |
| O=C(NCC(=O)N1CCN(c2ccc(-c3cc(CNc4ccon4)on3)cc2F)CC1)Nc1ccc([N+](=O)[O-])cc1 [Ia_1, 1-[2-(4-{2-Fluoro-4-[5-(isoxazol-3-ylaminomethyl)isoxazol-3-yl]phenyl}piperazin-1-yl)-2-oxoethyl]-3-(4-nitrophenyl)urea] | – | – | 1 (≈ 1.77 µM) | 2 (≈ 3.54 µM) |
| Cc1ncc(-c2cccc(C(=O)NCC(=O)N3CCN(c4ccc(-c5cc(CNc6ccon6)on5)cc4F)CC3)c2)s1 [I_51] | 1 | 1 | – | – |
| CN(CC(=O)N1CCN(c2ccc(-c3cc(CNc4ccon4)on3)cc2F)CC1)C(=O)c1ccc2[nH]cnc2c1 [I_155] | 2 | 2 | – | – |
| CC(=O)NC[C@H]1CN(c2ccc(N3CCN(C(=O)CO)CC3)c(F)c2)C(=O)O1 [Eperezolid, eperezolid, reference compound] | – | – | 2 (≈ 5.07 µM) | 4 (≈ 10.1 µM) |
| O=C(NCC(=O)N1CCN(c2ccc(-c3cc(CNc4ccon4)on3)cc2F)CC1)c1cccc(O)c1 [I_15] | 0.25 to 0.5 | 0.25 to 0.5 | – | – |
| C[C@@H](NC(=O)c1ncccc1N)C(=O)N1CCN(c2ccc(-c3cc(CNc4ccon4)on3)cc2F)CC1 [I_171] | 2 | 1 | – | – |
| CNCC(=O)NCC(=O)N1CCN(c2ccc(-c3cc(CNc4ccon4)on3)cc2F)CC1 [I_152] | 2 | 2 | – | – |
| Cc1ccc(C(=O)N[C@H](C(=O)N2CCN(c3ccc(-c4cc(CNc5ccon5)on4)cc3F)CC2)C(C)C)cn1 [I_170] | 4 | 4 | – | – |
| O=C(NCC(=O)N1CCN(c2ccc(-c3cc(CNc4ccon4)on3)cc2F)CC1)c1ccc([N+](=O)[O-])o1 [I_58] | 0.25 | 0.5 to 1 | – | – |
